Laboratory results: US20140080704A1, “SUBSTITUTED VINYL AND ALKINYL CYCLOHEXENOLS AS ACTIVE AGENTS AGAINST ABIOTIC STRESS IN PLANTS” (priority 2011, published 2014)

Experiments:
[1] = system: BRSNS (Brassica napus); assay: Drought stress test on greenhouse crop plants, spray application, efficacy EF (BRSNS); type: in vivo; details: dosage 25 g/ha, 600 l/ha water, mean of three results
Protocol: (§1) Seeds of monocotyledonous and dicotyledonous crop plants were laid out in sandy loam in wood-fiber pots, covered with soil and cultivated in a greenhouse under good growth conditions. The test plants were treated at the early leaf stage (BBCH10-BBCH13). To ensure uniform water supply before commencement of stress, the potted plants were supplied with the maximum amount of water immediately beforehand by dam irrigation and, after application, transferred in plastic inserts in order to prevent subsequent, excessively rapid drying. The inventive compounds, formulated in the form of wettable powders (WP), wettable granules (WG), suspension concentrates (SC) or emulsion concentrates (EC), were sprayed onto the green parts of the plants as an aqueous suspension at an equivalent water application rate of 600 l/ha with addition of 0.2% wetting agent (agrotin). Substance application is followed immediately by stress treatment of the plants (cold or drought stress). For cold stress treatment, the plants were kept under the following controlled conditions: • “day”: 12 hours with illumination at 8° C. • “night”: 12 hours without illumination at 1° C. […] The intensity of damage was first assessed as a percentage (100%=plants have died, 0%=like control plants). […]

[2] = system: ZEAMX (Zea mays); assay: Drought stress test on greenhouse crop plants, spray application, efficacy EF (ZEAMX); type: in vivo; details: dosage 25 g/ha, 600 l/ha water, mean of three results
Protocol: as §1

## CC1=CC(=O)C2CC2(C)C1(O)C#CC1=CC(=O)OC1 (centres unmarked) [I.4-54, 4-[(2-hydroxy-1,3-dimethyl-5-oxobicyclo[4.1.0]hept-3-en-2-yl)ethynyl]furan-2(5H)-one]
[1]
  EF (BRSNS): efficacy = percentage reduction in the intensity of damage: >5%
[2]
  EF (ZEAMX): efficacy = percentage reduction in the intensity of damage: >5%
